According to patent US9422239B1, “Dual PPAR-δ PPAR-γ agonists” (Auburn University, priority 2013, dated 2016):

Tests used:
H19-7 hippocampal cells = assay: BDNF, post synaptic markers and spine formation in H19-7 hippocampal cells; type: cell-based
Text: As shown in FIGS. 15A & B, reduced BDNF protein and gene expression is observed in db/db hippocampi which helps explain the observation that diabetes attenuates the expression of post synaptic receptor expression levels in db/db mice hippocampi.
As mentioned above, BDNF is known to induce synaptogenesis, spine density, and post synaptic receptor expression in neurons but has been previously shown to be reduced in AD brains.
The novel compounds (e.g., compound 9) have been developed as tools to better study the effects of PPARγ activation in the hippocampus upon cognition in AD.

PPARγ targets = assay: PPARγ target gene (mRNA) expression in hippocampi by qRT-PCR; type: in vivo, mice; conditions: 1 mg/kg orally, compared to rosiglitazone (ICV) and control
Method: Male C57/b16 and leptin deficient (db/db) mice were purchased from Jackson Laboratories (Bar Harbor, Me.). Animals were maintained in 12 hours of dark-light cycle. […] Both drugs were suspended in sterile saline. Four additional groups comprised the control portion of the study and received physiological saline in the place of the drug treatment either orally or by ICV. […] All treatments extended for 2 weeks.
Total RNA was isolated from hippocampi using RNAeasy Lipid Tissue Mini Kit (Qiagen, Valencia, Calif.) and was converted to cDNA (iScript cDNA synthesis kit—Bio Rad, Hercules, Calif.). Real-time PCR was performed in triplicate using a RT2 SYBR Green/Fluorescein fast master mix (SA-Bioscience) and an iCycler real-time PCR thermocycler (Bio-Rad). Gene expression was normalized to β-actin. Relative gene expression was determined by the comparative CT method (30). The data is presented as mean+/−SEM.

[1] = system: C2C12 skeletal muscle cells; assay: Mitochondrial biogenesis markers by quantitative RT-PCR; type: cell-based; conditions: 4 days
Method: Therefore, to test the effects of the novel compounds on mitochondrial biogenesis, C2C12 skeletal muscle cells were cultured and treated with the novel compounds for 4 days. Changes associated with markers for mitochondrial biogenesis were determined by quantitative real time PCR.

[2] = system: BDNF promoter in primary hippocampal neuronal cells; assay: BDNF promoter luciferase activity; type: cell-based, rat; conditions: dose response curve
Text: Primary hippocampal cells: Rat primary neuron cultures for luciferase assays as well as westerns and all other cell cultured assays are described herein. Rat primary neuron cultures can be generated from embryonic day 18-21 rat embryo (male and female) brains (Sprague Dawley) following known protocols. Briefly, the cortices, together with hippocampi, can be dissected and cells can be dissociated with 0.25% trypsin (Invitrogen), treated with 0.05% DNase I (Roche). To remove alternative cells and RBC's, tissue slurry can be allowed to sediment by gravity for 30 minutes at room temperature. Lower cellular suspension can then be plated on poly-D-lysine-coated dishes in Neurobasal A medium (Invitrogen) with B27 supplement (Invitrogen), penicillin (PAA Laboratories, 100 U/ml), streptomycin (PAA Laboratories, 0.1 mg/ml), and 1 mM L-glutamine (PAA Laboratories). Mitotic inhibitor 5-fluoro-2′-deoxyuridine (Sigma) can be added to the medium (10 μM) at 2 days in vitro (DIV) to remove fibroblast and astrocyte contamination. To test isolation purity for neurons, markers for neurons (MAP2) specificity can be measured by gene and western analysis.
Nine distinct transcriptional initiation sites exist: eight in the 5′ noncoding exon and one preceding coding exon IX, indicating nine different promoters control BDNF transcription sites. […]

Compound: Cc1ccc(CNCCCN(Cc2ccc(C(=O)O)cc2)Cc2cc(C(F)(F)F)cc(C(F)(F)F)c2)cc1 [Compound 9]
- Post synaptic density marker PSD95 expression (H19-7 hippocampal cells; H19-7 cells, western analysis): increase
- BDNF expression (H19-7 hippocampal cells; H19 cells): increase
- Spine formation (H19-7 hippocampal cells; H19 cells): promotes spine formation
- Activation of PPARγ targets in hippocampi (mRNA expression) (PPARγ targets): selective activation of PPARγ targets
- Cytochrome oxidase c 4-2 subunit expression [1]: significantly increased
- Gene expression of mitochondrial markers [1]: increases
- BDNF promoter activity (luciferase) [2]: inducing
